In brackets after ≈: the same amount, converted by molar mass. Numbered stars: 1 amine (or outer) side, 2 acyl side, 3 side chain; on linkers, the order of the positions; unused ones are H or OH. Bridge positions count the residues as written; N and C are the ends. Square brackets hold non-standard residues; d marks the D form. Peptide text beside a SMILES is read from it. * marks the point of attachment. hTyr(3S-OH,4S-OH,3'-OSO3H) = N[C@H](C(=O)O)[C@H](O)[C@@H](O)c1ccc(O)c(OS(=O)(=O)O)c1; pTerphenylCO(4''-OnC5H11) = CCCCCOc1ccc(-c2ccc(-c3ccc(C(=O)*)cc3)cc2)cc1; Orn(4R-OH,5R-OH) = O=C([C@H](C[C@@H](O)[C@@H](O)N[*:3])N[*:1])[*:2]; hTyr(3S-OH,4S-OH) = N[C@H](C(=O)O)[C@H](O)[C@@H](O)c1ccc(O)cc1; Pro(3S-OH,4S-Me) = C[C@H]1CN[C@H](C(=O)O)[C@H]1O; X1 = CCCCCOc1ccc(-c2cc(-c3ccc(C(=O)*)cc3)no2)cc1; Gln(3R-OH) = NC(=O)C[C@@H](O)[C@H](N)C(=O)O; Hyp = O=C(O)[C@@H]1C[C@@H](O)CN1
Columns and labels:
C. neoformans = test: Sensititre YeastOne Y09 AST drug combination assay; assay type: cell-based, Cryptococcus neoformans; conditions: 6G-318S at 0.16 ug/ml, C. neoformans H99
Description: Sensititre YeastOne Y09 AST assay—Fungal susceptibility to a combination of compounds was carried out using the Sensititre YeastOne Y09 AST assay kit (Thermofisher), according to the manufacturer's manual. Briefly, fungal C. neoformans cells in exponential growth phase were diluted to a final OD530 of 0.1. Then 20 μl diluted cells were further diluted into 10 ml YPD as a stock. […] The stock C. neoformans (100 μl, ˜200 cells) were dispensed into the compound-ready 96-well plate. The fungal cells (treated or with DMF) were incubated at 30° C. for 48 h. The cell cultures were visualized by naked eye. The MIC break points were determined according to manufacturer's instructions.

Prp8 intein [1] = biological target: T1, Prp8 intein (Cryptococcus gattii, UniProt E6R027); test: Split GFP-Prp8i intein splicing assay; assay type: biochemical; conditions: split GFP-Prp8 intein splicing
Description: Cloning, expression and purfication—The split GFP-Prp8i was constructed using a mega-PCR mutagenesis approach. […] After digestion with Dpn I restriction enzyme, the PCR product was transformed into DH5α Escherichia coli. Clones were verified by plasmid DNA sequencing. The expression, refolding and purification of the GFP-Prp8i fusion protein were carried out as described previously.
[…] Then 100 μl 2×TCEP was added to a final concentration of 20 μM. The reactions were incubated at 25° C. overnight. […] Two readings were taken, one prior to addition of TCEP (I0) and one after incubation overnight with TCEP (If). Fluorescence/luminescence differences (ΔFluorescence or ΔLuminescence) were defined as If−I0 for each well. […] DMF control served as 100% splicing activity.
Split GFP-Prp8 and CJGFP-Prp8 intein splicing assays—Using black and clear bottom 96-well plates, the DPNB-treated, -refolded and -concentrated GFP-Prp8 or CfGFP-Prp8 fusion protein (0.5 μM) was incubated with compounds or Dimethylsulfoxide (DMSO) solvent control for 30 min at 25° C. in a 100 μl intein splicing buffer (20 mM Bis-tris propane, 0.5 M NaCl, 0.5 M arginine, 1 mM EDTA, and 0.05% CHAPS). Then 100 μl 2×TCEP was added to a final concentration of 20 μM. The reactions were incubated at 25° C. overnight. […] Two readings were taken, one prior to addition of TCEP (I0) and one after incubation overnight with TCEP (If). Fluorescence/luminescence differences (ΔFluorescence or ΔLuminescence) were defined as If−I0 for each well. […] DMSO control served as 100% splicing activity.

Prp8 intein [2] = biological target: T1, Prp8 intein; test: Split Renilla luciferase RLuc-Prp8 intein splicing assay; assay type: biochemical; conditions: split Renilla luciferase RLuc-Prp8 intein splicing
Description: Split luciferase Prp8 intein splicing assay—The split RLuc-Prp8 fusion protein was carried out and monitored using a Veritas luminometer, as described previously.
Split luciferase RLuc-Prp8 and NnLuc-Prp8 intein splicing assays—The split RLuc-Prp8 intein splicing assay was carried out and monitored using a Veritas luminometer, as described previously. […] Microbes. Infect. […] For NnLuc-Prp8 intein splicing assay, the NnLuc-prp8 is diluted in assay buffer (50 mM Tris, 0.1% BSA, 1 mM EDTA, pH 7.4) and 50 ul is added to each well in 96 well black plates. Test molecules or the solvent was added and incubated for 30 to 60 min. A splicing inducer TCEP (50 ul, 100 μM) is added and incubated for 24 h. Luciferase substrate (Furimazine, 25 ul 1:10,000 diluted) is added and luminescence is read using a luminescence reader. IC50 is calculated using Graphpad prism.

in vitro = assay type: cell-based, human; conditions: human, CC50 A549
Description: Cytotoxicity—Cytotoxicity assays were carried out using human lung carcinoma cell line A549, as described (Chen et al., “Selective Inhibition of the West Nile Virus Methyltransferase by Nucleoside Analogs,” Antiviral Research 97(3):232-239 (2013), which is hereby incorporated by reference in its entirety). Briefly, the A549 cells (5×10^3) were incubated with/without compounds in a 96-well plate at 37° C. for 48 h. Cell viability was determined using the MTT assay (ATCC) as was described previously (Chen et al., “Selective Inhibition of the West Nile Virus Methyltransferase by Nucleoside Analogs,” Antiviral Research 97(3):232-239 (2013) and Brecher et al., “Identification and Characterization of Novel Broad-Spectrum Inhibitors of the Flavivirus Methyltransferase,” ACS Infectious Diseases 1(8):340-349 (2015), both of which are hereby incorporated by reference in their entirety). N=3.
Cytotoxicity—Cytotoxicity assays were carried out using human lung carcinoma cell line A549, as described. Chen et al., “Selective Inhibition of the West Nile Virus Methyltransferase by Nucleoside Analogs,” Antiviral Res. 97:232-9 (2013), which is hereby incorporated by reference in its entirety. Briefly, the A549 cells (5×10^3) were incubated with/without compounds in a 96-well plate at 37° C. for 48 h. Cell viability was determined using the MTT assay (ATCC) as was described previously (Chen et al., “Selective Inhibition of the West Nile Virus Methyltransferase by Nucleoside Analogs,” Antiviral Research 97(3):232-239 (2013) and Brecher et al., “Identification and Characterization of Novel Broad-Spectrum Inhibitors of the Flavivirus Methyltransferase,” ACS Infectious Diseases 1(8):340-349 (2015), both of which are hereby incorporated by reference in their entirety). N=3.

C. neoformans H99 strain = test: Fungal susceptibility test, broth microdilution MIC; assay type: cell-based, Cryptococcus neoformans; conditions: Cryptococcus neoformans, H99STRAIN; C. neoformans H99, microbroth dilution; read-out: MIC H99
Description: Fungal susceptibility test—The fungal susceptibility test was carried out with a compound concentration series as described. […] The broth microdilution method was used to determine the compound MIC values against C. neoformans.
Fungal susceptibility test—The fungal susceptibility test was carried out with a compound concentration series as described. […] Microbes. Infect. […] The broth microdilution method was used to determine the compound MIC values against C. neoformans.

T1 sequence (E6R027 entry or part of it): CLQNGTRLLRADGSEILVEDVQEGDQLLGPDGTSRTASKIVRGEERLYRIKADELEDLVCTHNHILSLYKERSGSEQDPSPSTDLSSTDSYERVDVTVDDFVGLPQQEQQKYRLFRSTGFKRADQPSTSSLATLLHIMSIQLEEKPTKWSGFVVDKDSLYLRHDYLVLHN

| Structure (SMILES) | reduction of MIC of known antifungal on addition of 6G-318S (C. neoformans) | IC50 (Prp8 intein [1]) [µM] | IC50 (Prp8 intein [2]) [µM] | CC50 at 48 h (in vitro) [µM] | MIC (C. neoformans H99 strain) [µM] |
| --- | --- | --- | --- | --- | --- |
| CCCCCOc1ccc(-c2cc(-c3ccc(C(=O)N[C@H]4C[C@@H](O)[C@@H](O)NC(=O)[C@@H]5[C@@H](O)[C@@H](C)CN5C(=O)[C@H]([C@H](O)CC(N)=O)NC(=O)[C@H]([C@H](O)[C@@H](O)c5ccc(O)c(OS(=O)(=O)O)c5)NC(=O)[C@@H]5C[C@@H](O)CN5C(=O)[C@H]([C@@H](C)O)NC4=O)cc3)no2)cc1 [MF, Micafungin] (X1-[Orn(4R-OH,5R-OH)]T[Hyp][hTyr(3S-OH,4S-OH,3'-OSO3H)][Gln(3R-OH)][Pro(3S-OH,4S-Me)]; lactam 1-C) | did not change | – | – | – | – |
| OC(Cn1cncn1)(Cn1cncn1)c1ccc(F)cc1F [FZ, fluconazole] | did not change | – | – | – | – |
| CC[C@@H]([C@H](C)O)n1ncn(-c2ccc(N3CCN(c4ccc(OC[C@@H]5CO[C@@](Cn6cncn6)(c6ccc(F)cc6F)C5)cc4)CC3)cc2)c1=O [PZ, Posaconazole] | did not change | – | – | – | – |
| CCCCCOc1ccc(-c2ccc(-c3ccc(C(=O)N[C@H]4C[C@@H](O)[C@@H](O)NC(=O)[C@@H]5[C@@H](O)[C@@H](C)CN5C(=O)[C@H]([C@@H](C)O)NC(=O)[C@H]([C@H](O)[C@@H](O)c5ccc(O)cc5)NC(=O)[C@@H]5C[C@@H](O)CN5C(=O)[C@H]([C@@H](C)O)NC4=O)cc3)cc2)cc1 [AND, Anidulafungin] ({pTerphenylCO(4''-OnC5H11)}-[Orn(4R-OH,5R-OH)]T[Hyp][hTyr(3S-OH,4S-OH)]T[Pro(3S-OH,4S-Me)]; lactam 1-C) | did not change | – | – | – | – |
| CC[C@H](C)C[C@H](C)CCCCCCCCC(=O)N[C@H]1C[C@@H](O)[C@@H](NCCN)NC(=O)[C@@H]2[C@@H](O)CCN2C(=O)[C@H]([C@H](O)CCN)NC(=O)[C@H]([C@H](O)[C@@H](O)c2ccc(O)cc2)NC(=O)[C@@H]2C[C@@H](O)CN2C(=O)[C@H]([C@@H](C)O)NC1=O [CAS, Caspofungin] | did not change | – | – | – | – |
| O=C(Nc1ccc(F)cc1F)c1nnsc1Sc1ccc(Cl)cc1 [JMX0569, 5-((4-Chlorophenyl)thio)-N-(2,4-difluorophenyl)-1,2,3-thiadiazole-4-carboxamide] | – | > 50 | 36.2 | 186 | > 100 |
| O=C(NCc1ccc(F)cc1)c1nnsc1Sc1ccc(Cl)cc1 [JMX0573, 5-((4-Chlorophenyl)thio)-N-(4-fluorobenzyl)-1,2,3-thiadiazole-4-carboxamide] | – | > 50 | 5.5 | 282 | > 100 |
| O=C(Nc1ccccc1F)c1ncsc1S(=O)(=O)c1ccc(Cl)cc1 [JMX0516, 5-((4-Chlorophenyl)sulfonyl)-N-(2-fluorophenyl)thiazole-4-carboxamide] | – | 49.3 | 13.3 | 144 | > 100 |
| O=C(Nc1ccc(F)cc1)c1nnc(S(=O)(=O)c2ccc(Cl)cc2)s1 [JMX0585-1, 5-((4-chlorophenyl)sulfonyl)-N-(4-fluorophenyl)-1,3,4-thiadiazole-2-carboxamide] | – | 5.7 | 19.4 | 26 | 3.12 (≈ 1.24 µg/mL) |
| O=C(Nc1ccc(C(F)(F)F)nc1)c1ncsc1S(=O)(=O)c1ccc(Cl)cc1 [JMX0523, 5-((4-Chlorophenyl)sulfonyl)-N-(6-(trifluoromethyl)pyridin-3-yl) thiazole-4-carboxamide] | – | > 50 | 37.1 | 114 | > 100 |
| O=C(Nc1ccc(C(F)(F)F)cc1)c1nnsc1Sc1ccc(Cl)cc1 [JMX0575, 5-((4-Chlorophenyl)thio)-N-(4-(trifluoromethyl)phenyl)-1,2,3-thiadiazole-4-carboxamide] | – | > 50 | 21.5 | 271 | > 100 |
| O=C(Nc1ccc(F)nc1)c1ncsc1S(=O)(=O)c1ccc(Cl)cc1 [JMX0524, 5-((4-Chlorophenyl)sulfonyl)-N-(6-fluoropyridin-3-yl)thiazole-4-carboxamide] | – | > 50 | 7.8 | 174 | > 100 |
| O=C(Nc1ccc(Cl)cc1Cl)c1ncsc1S(=O)(=O)c1ccc(Cl)cc1 [JMX0519, 5-((4-Chlorophenyl)sulfonyl)-N-(2,4-dichlorophenyl)thiazole-4-carboxamide] | – | 50 | 11.7 | 245 | > 100 |
| O=C(Nc1ccc(F)cc1)c1nnc(Sc2ccc(Cl)cc2)s1 [JMX0584, 5-((4-chlorophenyl)thio)-N-(4-fluorophenyl)-1,3,4-thiadiazole-2-carboxamide] | – | > 50 | 11 | > 150 | > 100 |
| O=C(Nc1cccc(F)c1)c1ncsc1S(=O)(=O)c1ccc(Cl)cc1 [JMX0517, 5-((4-Chlorophenyl)sulfonyl)-N-(3-fluorophenyl)thiazole-4-carboxamide] | – | > 50 | 28.4 | 161 | > 100 |
| O=C(Nc1ccc(F)cc1)c1nnsc1[S+]([O-])c1ccc(Cl)cc1 (stereo not shown) [JMX0565-1, 5-((4-Chlorophenyl)sulfinyl)-N-(4-fluorophenyl)-1,2,3-thiadiazole-4-carboxamide] | – | 7.1 | 16.6 | 32.5 | 0.097 (≈ 0.037 µg/mL) |
